According to patent publication US12396461B2, “Functional peptides having antimicrobial activity against phytopathogenic microorganisms” (TOYOTA JIDOSHA KABUSHIKI KAISHA, priority 2019, dated 2025):
Values joined by “and” are separate entries in the source; they are usually repeats but may differ in a detail not shown here. Equal values may be shown once. Read-outs that look alike come from different tables or passages of the source.

Assays:
Botrytis cinerea = type: cell-based; set-up: key to Plate antimicrobial activity test Botrytis cinerea, level: a case where hyphae extended to the entire well and no antimicrobial activity was found is defined as “level 0,”; a case where hyphae extended to less than a half of the well and thus the peptide inhibited the growth of the hyphae is defined as “level 1,”; a case where ungerminated spores were present and the peptide partially inhibited the germination is defined as “level 2,”; a case where all spores were ungerminated and the peptide completely inhibited the germination is defined as “level 3.”; conditions: 25° C. for 1 day or 2 days, microscopic observation
[1] = test system: Colletotrichum destructivum; type: cell-based; set-up: key to Plate antimicrobial activity test Colletotrichum destructivum, level: a case where hyphae extended to the entire well and no antimicrobial activity was found is defined as “level 0,”; a case where hyphae extended to less than a half of the well and thus the peptide inhibited the growth of the hyphae is defined as “level 1,”; a case where ungerminated spores were present and the peptide partially inhibited the germination is defined as “level 2,”; a case where all spores were ungerminated and the peptide completely inhibited the germination is defined as “level 3.”; conditions: 25° C. for 1 day or 2 days, microscopic observation
[2] = test system: Colletotrichum orbiculare; type: cell-based; set-up: key to Plate antimicrobial activity test Colletotrichum orbiculare, level: a case where hyphae extended to the entire well and no antimicrobial activity was found is defined as “level 0,”; a case where hyphae extended to less than a half of the well and thus the peptide inhibited the growth of the hyphae is defined as “level 1,”; a case where ungerminated spores were present and the peptide partially inhibited the germination is defined as “level 2,”; a case where all spores were ungerminated and the peptide completely inhibited the germination is defined as “level 3.”; conditions: 25° C. for 1 day or 2 days, microscopic observation
Fusarium oxysporum = type: cell-based; set-up: key to Plate antimicrobial activity test Fusarium oxysporum, level: a case where hyphae extended to the entire well and no antimicrobial activity was found is defined as “level 0,”; a case where hyphae extended to less than a half of the well and thus the peptide inhibited the growth of the hyphae is defined as “level 1,”; a case where ungerminated spores were present and the peptide partially inhibited the germination is defined as “level 2,”; a case where all spores were ungerminated and the peptide completely inhibited the germination is defined as “level 3.”
Pyricularia oryzae = type: cell-based; set-up: key to Plate antimicrobial activity test Pyricularia oryzae, level: a case where hyphae extended to the entire well and no antimicrobial activity was found is defined as “level 0,”; a case where hyphae extended to less than a half of the well and thus the peptide inhibited the growth of the hyphae is defined as “level 1,”; a case where ungerminated spores were present and the peptide partially inhibited the germination is defined as “level 2,”; a case where all spores were ungerminated and the peptide completely inhibited the germination is defined as “level 3.”; conditions: 25° C. for 1 day or 2 days, microscopic observation
[3] = test system: Colletotrichum destructivum; experiment: Colletotrichum destructivum leaf inoculation test (Chinese cabbage leaf); type: in vivo; conditions: Chinese cabbage leaf, 25° C. for 4 days, lesions by visual inspection, symbols ◯/Δ/X not defined
Protocol: In the present example, a suspension comprising Colletotrichum destructivum and a peptide to be tested was dropped on a plant leaf, and lesions were then observed by visual inspection to evaluate the antimicrobial activity of the tested peptide. First, the pores of Colletotrichum destructivum were suspended in water to result in a spore concentration of 5×10^5 spores/ml, so as to prepare a water suspension of spores. Subsequently, a peptide to be tested (TsORF6-1) was added to the water suspension of spores, so that the final concentration of the peptide to be tested became 0 μM, 1 μM, 10 μM or 100 μM. Thereafter, 10 μl each of the water suspension of spores containing the peptide to be tested was dropped on the front side and the back side of the leaf of Chinese cabbage (variety name: “Kigokoro 85”). In this condition, incubation was carried out at 25° C. for 4 days. Thereafter, the front and back sides of the leaf were observed by visual inspection.

[4] = test system: plant pathogenic filamentous fungi; type: cell-based; conditions: Table 3

Row | Substance | Plate antimicrobial activity test Botrytis cinerea, level (Botrytis cinerea; peptide 1 μM) | Plate antimicrobial activity test Botrytis cinerea, level (Botrytis cinerea; peptide 10 μM) | Plate antimicrobial activity test Botrytis cinerea, level (Botrytis cinerea; peptide 100 μM) | Plate antimicrobial activity test Colletotrichum destructivum, level ([1]; peptide 1 μM) | Plate antimicrobial activity test Colletotrichum destructivum, level ([1]; peptide 10 μM) | Plate antimicrobial activity test Colletotrichum destructivum, level ([1]; peptide 100 μM) | Plate antimicrobial activity test Colletotrichum orbiculare, level ([2]; peptide 1 μM) | Plate antimicrobial activity test Colletotrichum orbiculare, level ([2]; peptide 10 μM) | Plate antimicrobial activity test Colletotrichum orbiculare, level ([2]; peptide 100 μM) | Plate antimicrobial activity test Fusarium oxysporum, level (Fusarium oxysporum) | Plate antimicrobial activity test Pyricularia oryzae, level (Pyricularia oryzae; peptide 1 μM) | Plate antimicrobial activity test Pyricularia oryzae, level (Pyricularia oryzae; peptide 10 μM) | Plate antimicrobial activity test Pyricularia oryzae, level (Pyricularia oryzae; peptide 100 μM) | Leaf inoculation test Chinese cabbage/Colletotrichum destructivum ([3]; peptide 100 μM) | germination inhibitory activity against plant pathogenic filamentous fungi, result in words [4] | Leaf inoculation test Chinese cabbage/Colletotrichum destructivum ([3]; peptide 10 μM)
1 | MKVMI (listed as Solanum lycopersicum) [TsORF6-1-5aa-1, partial peptide of TsORF6-1, 5 amino acid residues] | 0 | 0 | 1 | 0 | 0 | 1 | 0 | 0 | 1 | 0 | 0 | 0 | 1 | ◯ | extremely excellent germination inhibitory activity | 
2 | KVMIV (listed as Solanum lycopersicum) [TsORF6-1-5aa-2, partial peptide of TsORF6-1, 5 amino acid residues] | 0 | 0 | 1 | 0 | 0 | 1 | 0 | 0 | 1 | 0 | 0 | 0 | 0 | ◯ | extremely excellent germination inhibitory activity | 
3 | VMIVVKTK (listed as Solanum lycopersicum) [TsORF6-1-8aa-3, partial peptide of TsORF6-1, 8 amino acid residues] | 0 | 0 | 3 | 0 | 0 | 3 | 0 | 0 | 3 | 3 and 0 | 0 | 0 | 3 | ◯ | extremely excellent germination inhibitory activity | ◯
4 | VAKMM (listed as Solanum lycopersicum) [TsORF6-1-5aa-16, partial peptide of TsORF6-1, 5 amino acid residues] | 0 | 0 | 0 | 0 | 0 | 0 | 0 | 0 | 0 | 0 | 0 | 0 | 0 | ◯ | extremely excellent germination inhibitory activity | 
5 | VMIVV (listed as Solanum lycopersicum) [TsORF6-1-5aa-3, partial peptide of TsORF6-1, 5 amino acid residues] | 0 | 0 | 1 | 0 | 0 | 1 | 0 | 0 | 1 | 0 | 0 | 0 | 0 | ◯ | extremely excellent germination inhibitory activity | 
6 | MKVMIVVK (listed as Solanum lycopersicum) [TsORF6-1-8aa-1, partial peptide of TsORF6-1, 8 amino acid residues] | 0 | 0 | 2 | 0 | 0 | 3 | 0 | 0 | 3 | 3 and 0 | 0 | 0 | 3 | ◯ | extremely excellent germination inhibitory activity | Δ
